pIC50, pKd, pKi: −log10 of the molar value. “Also recorded” adds a separate entry of the source. Like-named read-outs stand apart in the source and are kept apart here.
How the values were obtained:
[1] = tested on: LDH activity in B. microti; conditions: cited from earlier work; for pIC50: previous work
B. microti = assay: In vitro growth inhibition of B. microti; type: cell-based; conditions: Babesia microti, Erythrocyte, 72 h, read-out: B. microti IC50 (growth inhibition)
Method: Once parasitemia reached 60%, blood was collected from the tails of the mice, and the initial percent parasitized erythrocytes (PPE) was diluted to approximately 0.8% using healthy mouse erythrocytes. […] Cultures were incubated for 72 h at 37 ℃ in a gas mixture of 2% O2, 5% CO2, and 93% N2 [23, 24]. After incubation, blood smears were prepared, stained with Giemsa, and the parasitemia rate was calculated. All experiments were performed in triplicate.

rBmLDH [2] = target: T1, rBmLDH (Babesia microti, UniProt I7J7V6); type: binding; conditions: for pKd: read-out: equilibrium dissociation constant (Kd)
T1 sequence (I7J7V6 1-332): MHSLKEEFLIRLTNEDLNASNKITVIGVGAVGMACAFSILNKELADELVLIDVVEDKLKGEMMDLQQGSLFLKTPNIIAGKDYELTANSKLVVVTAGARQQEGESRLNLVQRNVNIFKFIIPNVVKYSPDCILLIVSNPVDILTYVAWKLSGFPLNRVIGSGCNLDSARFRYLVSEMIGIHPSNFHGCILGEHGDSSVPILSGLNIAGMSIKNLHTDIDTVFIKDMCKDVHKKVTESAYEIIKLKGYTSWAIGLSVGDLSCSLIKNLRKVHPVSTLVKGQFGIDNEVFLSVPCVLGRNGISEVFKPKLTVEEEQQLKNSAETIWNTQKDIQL

rBmLDH [3] = target: T1, rBmLDH; type: biochemical; conditions: pH 9.5; read-out: BmLDH IC50
in vitro = type: cell-based; conditions: African green monkey
Method: The mycoplasma-free Vero cell line (ATCC-CCL-81, immortalized cells) was cryopreserved in liquid nitrogen with DMSO at the National Key Laboratory of Agricultural Microbiology, Huazhong Agricultural University, China. The cytotoxicity of compounds TA and TB was assessed in Vero cells using the CCK-8 assay (Vazyme). Briefly, Vero cells (100 µL, 10,000 cells/well) were cultured in Dulbecco’s modified Eagle medium (DMEM) supplemented with 10% fetal bovine serum (FBS) and 100 U/mL penicillin–streptomycin at 37 ℃ with 5% CO2 for 24 h. The cells were then treated with varying concentrations of TA (2000, 1000, 500, 250, and 125 μM) or TB (800, 400, 200, 100, and 50 μM) for 72 h. After the treatment period, the medium containing TA and TB was replaced with fresh medium. Subsequently, 10 µL of CCK-8 solution was added to each well, and the plate was incubated for an additional 3 h. Absorbance was measured at 450 nm using a multifunctional enzyme marker (Envision, PE, USA). Stock solutions of TA and TB were prepared at a concentration of 100 mM in absolute ethanol. Doxorubicin hydrochloride at 40 µM served as the positive control, while 2% absolute ethanol served as the negative control. The concentration required to achieve 50% cytotoxicity (CC50) values were calculated using GraphPad Prism 8, and all cytotoxicity assays were performed in triplicate.

[4] = tested on: Plasmodium falciparum LDH; parameters: method as in PMID 9748363; conditions: cited from earlier work
human LDH-M (LDH-A4) = target: human LDH-M (LDH-A4); parameters: method as in PMID 9748363; conditions: cited from earlier work

Row | Compound | pIC50 [1] | binding capacity/affinity to rBmLDH compared with lead compound DHNA (rBmLDH [2]) | pKd (rBmLDH [2]) | pIC50 (rBmLDH [3]) | CC50 at 72 h (in vitro) [µM] | other results
1 | O=C(O)c1cc2cc(Br)ccc2c(Br)c1O [DBHCA, 1,6-dibromo-2-hydroxynapthalene 3-carboxylic acid] | 4.28 | – | – | – | – | –
2 | Cc1cc2c(C(C)C)c(O)c(O)c(C=O)c2c(O)c1-c1c(C)cc2c(C(C)C)c(O)c(O)c(C=O)c2c1O [Gossypol] | – | – | – | – | – | concentration that significantly inhibits LDH activity in B. microti ([1]; in vitro): 592 nM
3 | O=C(O)c1cc2cccc(O)c2cc1O [DHNA, 3,5-dihydroxy-2-naphthoxylic acid] | 4.52 | – | – | – | – | –
4 | O=C(O)c1cccc(-c2ccc3ccc(O)cc3c2)c1 [TB] | – | over a threefold increase in binding capacity; also recorded: more than three times higher affinity | 4.88 | 4.62 | 434 | pIC50 (B. microti; in Mus musculus): 3.95
5 | O=C(O)c1ccccc1Cc1ccc2ccc(O)cc2c1 [TA] | – | over a threefold increase in binding capacity; also recorded: more than three times higher affinity | 4.95 | 4.15 | 1030 | pIC50 (B. microti; in vitro culture in mouse erythrocytes, 37 ℃): 3.91
6 | CCCc1c(O)c(O)c(C(=O)O)c2cc(Cc3ccccc3)c(C)cc12 [Compound 11F] | – | – | – | – | – | pKi [4]: 6.52; pKi (human LDH-M (LDH-A4)): 7.30

Source: paper PMC11847361, “Design and screening of novel molecular compounds targeting lactate dehydrogenase of Babesia microti” (Parasites & Vectors, 2025)
